According to patent US20240116877A1, “KIT KINASE INHIBITORS AND METHODS OF USE THEREOF” (Deciphera Pharmaceuticals, LLC, priority 2021, published 2024):
Like-named read-outs stand apart in the source and are kept apart here.

Assays:
c-KIT kinase (uKIT) = c-KIT kinase (uKIT) (Homo sapiens (Human), UniProt P10721); assay: Biochemical Assay for uKIT (coupled pyruvate kinase/lactate dehydrogenase assay); settings: Inhibition of biochemical activity of uKIT kinase; 1 mM ATP
Procedure, shortened: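 Continuous coupled PK/LDH assay following NADH oxidation at 340 nm for 6 h at 30° C, with 16 nM or 4.36 nM KIT (two constructs), 0.7 mg/mL PE4Y, 1 mM ATP, pH 7.5. Rates from the 2-3 h window converted to percent inhibition versus controls; IC50 fitted.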

Ba/F3 KIT mutant cells = assay: Ba/F3 mutant KIT Cell Proliferation Assays (resazurin); type: cell-based; settings: Mus musculus, BaF3
Procedure, shortened: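 IC50 values come from resazurin fluorescence (ex 540, em 600) after 5 h dye exposure, added as a 440 μM solution. Cells were IL-3-independent Ba/F3 expressing mutant KIT from a lentiviral vector, puromycin-selected.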

GIST 430 cells = assay: GIST 430 Cell Proliferation Assay (resazurin); type: cell-based; settings: Homo sapiens; GIST430 cell proliferation
Procedure, shortened: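 Five thousand cells per well were exposed to serially diluted compound in complete growth medium for 115 h at 37 degrees Celsius, 5% CO2. Resazurin was then added for a further 5 h, fluorescence read at 540 nm excitation/600 nm emission, and IC50 values calculated.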

[1] = Ba/F3 KIT AYdup mutant cell proliferation, read-out: AYdup IC50
[2] = Ba/F3 KIT AYdup-D816G mutant cell proliferation, read-out: AYdup-D816G IC50
[3] = Ba/F3 KIT AYdup-V654A mutant cell proliferation, read-out: AYdup-V654A IC50
[4] = Ba/F3 KIT exon11del-V654A mutant cell proliferation, read-out: exon11del-V654A IC50
[5] = Ba/F3 KIT exon11del-Y823D mutant cell proliferation, read-out: exon11del-Y823D IC50

c-KIT kinase (uKIT), sequence (P10721 other isoform, or with tags, fused parts or gaps): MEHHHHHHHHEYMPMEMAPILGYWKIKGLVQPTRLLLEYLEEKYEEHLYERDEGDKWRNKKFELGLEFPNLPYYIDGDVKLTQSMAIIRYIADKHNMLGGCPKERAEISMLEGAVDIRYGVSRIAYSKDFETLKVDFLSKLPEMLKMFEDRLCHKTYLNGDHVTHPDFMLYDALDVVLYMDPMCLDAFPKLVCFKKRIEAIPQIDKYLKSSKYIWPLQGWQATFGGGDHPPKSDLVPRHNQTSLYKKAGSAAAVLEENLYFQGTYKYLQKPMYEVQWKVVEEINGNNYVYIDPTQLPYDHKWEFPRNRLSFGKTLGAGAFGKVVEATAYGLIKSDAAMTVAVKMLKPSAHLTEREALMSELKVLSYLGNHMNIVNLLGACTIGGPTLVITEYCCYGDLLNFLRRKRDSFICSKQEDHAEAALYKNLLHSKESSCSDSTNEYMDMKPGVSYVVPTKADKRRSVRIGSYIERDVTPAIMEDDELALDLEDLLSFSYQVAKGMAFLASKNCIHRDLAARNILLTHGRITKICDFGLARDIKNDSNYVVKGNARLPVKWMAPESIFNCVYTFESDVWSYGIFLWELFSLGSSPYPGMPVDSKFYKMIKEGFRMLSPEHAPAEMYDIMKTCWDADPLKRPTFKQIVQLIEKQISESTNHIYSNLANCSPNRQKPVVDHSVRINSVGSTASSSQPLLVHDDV

| Compound | IC50 (c-KIT kinase (uKIT)) | IC50 (Ba/F3 KIT mutant cells; [1]) | IC50 (Ba/F3 KIT mutant cells; [2]) | IC50 (Ba/F3 KIT mutant cells; [3]) | IC50 (Ba/F3 KIT mutant cells; [4]) | IC50 (Ba/F3 KIT mutant cells; [5]) | IC50 (GIST 430 cells) |
| --- | --- | --- | --- | --- | --- | --- | --- |
| COCCOc1cc(F)c2c(Nc3ccc(NC(=O)CC(=O)NCC(C)(C)C(F)(F)F)cc3)ncnc2c1 [Example 88] | 10 to 100 nM | ≤ 10 nM | ≤ 10 nM | 10 to 100 nM | ≤ 10 nM | 10 to 100 nM | ≤ 10 nM |
| COCCOc1cc(F)c2c(Nc3ccc(NC(=O)CCCC(C)(C)C)cc3)ncnc2c1 [Example 16] | ≤ 10 nM | – | ≤ 10 nM | 10 to 100 nM | ≤ 10 nM | 10 to 100 nM | ≤ 10 nM |
| CNC(=O)COc1cc(F)c2c(Nc3ccc(NC(=O)NCCC(C)(C)F)cc3)ncnc2c1 [Example 147] | 10 to 100 nM | – | – | 100 to 1000 nM | 10 to 100 nM | > 1000 nM | 100 to 1000 nM |
| COCCOc1cc(F)c2c(Nc3ccc(NC(=O)NCCC4CCOCC4)cc3)ncnc2c1 [Example 61] | 10 to 100 nM | ≤ 10 nM | ≤ 10 nM | 10 to 100 nM | ≤ 10 nM | 10 to 100 nM | ≤ 10 nM |
| COCCCc1ccc2c(Nc3ccc(NC(=O)NCCC(C)(C)F)cc3)cnnc2c1 [Example 190, 1-(3-fluoro-3-methylbutyl)-3-(4-((7-(3-methoxypropyl)cinnolin-4-yl)amino)phenyl)urea] | 10 to 100 nM | – | – | 10 to 100 nM | 10 to 100 nM | 10 to 100 nM | 10 to 100 nM |
| CC(C)(F)CCNC(=O)Nc1ccc(Nc2ncnc3cc(OCCN4CCOCC4)cc(F)c23)cc1 [Example 39] | ≤ 10 nM | ≤ 10 nM | 10 to 100 nM | 10 to 100 nM | 10 to 100 nM | 10 to 100 nM | ≤ 10 nM |
| COCCOc1cc(F)c2c(Nc3ccc(NC(=O)CNC(=O)C(C)(C)C)cc3)ncnc2c1 [Example 103] | 10 to 100 nM | – | – | 10 to 100 nM | 10 to 100 nM | 100 to 1000 nM | ≤ 10 nM |
| COCCOc1cc(F)c2c(Nc3ccc(NC(=O)CC(=O)NC4CC5(COC5)C4)cc3)ncnc2c1 [Example 114] | 100 to 1000 nM | – | – | 100 to 1000 nM | 100 to 1000 nM | > 1000 nM | 100 to 1000 nM |
| COCCOc1cc(F)c2c(Nc3ccc(NC(=O)CC(=O)NC4(C(F)(F)F)CC4)cc3)ncnc2c1 [Example 129] | 10 to 100 nM | – | – | 10 to 100 nM | ≤ 10 nM | > 1000 nM | 10 to 100 nM |
| COCCOc1cc(F)c2c(Nc3ccc(NC(=O)CC(=O)N4CCC[C@@H]4C)cc3)ncnc2c1 [Example 196] | 10 to 100 nM | – | – | 10 to 100 nM | 100 to 1000 nM | 100 to 1000 nM | 10 to 100 nM |
| COCCOc1cc(F)c2c(Nc3ccc(NC(=O)NCCC(C)(C)F)cc3F)ncnc2c1 [Example 65] | ≤ 10 nM | – | – | 10 to 100 nM | ≤ 10 nM | 100 to 1000 nM | 10 to 100 nM |
| COCCOc1cc(F)c2c(Nc3ccc(NC(=O)NCCC4(OC)CC4)cc3)ncnc2c1 [Example 32] | ≤ 10 nM | ≤ 10 nM | ≤ 10 nM | 10 to 100 nM | 10 to 100 nM | 10 to 100 nM | 10 to 100 nM |
| COCCOc1cc(OC)c2c(Nc3ccc(NC(=O)CC(=O)N(C)C(C)(C)C)cc3)ncnc2c1 [Example 192] | 10 to 100 nM | – | – | 10 to 100 nM | 100 to 1000 nM | 10 to 100 nM | 10 to 100 nM |
| COCCOc1cc(F)c2c(Nc3ccc(NC(=O)CC(=O)NC4CCCCC4)cc3)ncnc2c1 [Example 97] | ≤ 10 nM | ≤ 10 nM | 10 to 100 nM | 10 to 100 nM | ≤ 10 nM | 10 to 100 nM | ≤ 10 nM |
| COCCOc1cc(F)c2c(Nc3ccc(NC(=O)CC(=O)N4CCC(C)(C)CC4)cc3)ncnc2c1 [Example 152] | 10 to 100 nM | – | – | 10 to 100 nM | 10 to 100 nM | 100 to 1000 nM | 10 to 100 nM |
| COCCOc1cc(F)c2c(Nc3ccc(NC(=O)CC(=O)NCC4CC5(CCC5)C4)cc3)ncnc2c1 [Example 118] | ≤ 10 nM | – | – | 10 to 100 nM | ≤ 10 nM | 10 to 100 nM | 10 to 100 nM |
| COCCOc1cc(F)c2c(Nc3ccc(NC(=O)NCCC4COC4)cc3)ncnc2c1 [Example 27] | 100 to 1000 nM | – | – | > 1000 nM | > 1000 nM | – | > 1000 nM |
| COCCOc1cc(F)c2c(Nc3ccc(NC(=O)CC(=O)NCCC(C)(C)OC)cc3)ncnc2c1 [Example 107] | 10 to 100 nM | – | – | 100 to 1000 nM | 10 to 100 nM | > 1000 nM | 100 to 1000 nM |

| Compound | IC50 (c-KIT kinase (uKIT)) | IC50 (Ba/F3 KIT mutant cells; [1]) | IC50 (Ba/F3 KIT mutant cells; [2]) | IC50 (Ba/F3 KIT mutant cells; [3]) | IC50 (Ba/F3 KIT mutant cells; [4]) | IC50 (Ba/F3 KIT mutant cells; [5]) | IC50 (GIST 430 cells) |
| --- | --- | --- | --- | --- | --- | --- | --- |
| COCCOc1cc(OC)c2c(Nc3ccc(NC(=O)CC(=O)NC4CCCC4)cc3)ncnc2c1 [Example 176] | 10 to 100 nM | 10 to 100 nM | 10 to 100 nM | 10 to 100 nM | 100 to 1000 nM | 10 to 100 nM | 10 to 100 nM |
| COCCOc1cc(F)c2c(Nc3ccc(NC(=O)CC(=O)N4CCCC(F)(F)C4)cc3)ncnc2c1 [Example 165] | 10 to 100 nM | – | – | 10 to 100 nM | 100 to 1000 nM | 100 to 1000 nM | 10 to 100 nM |
| COCCOc1cc(F)c2c(Nc3ccc(NC(=O)CC(=O)NCCN(C)C)cc3)ncnc2c1 [Example 83] | > 1000 nM | – | – | – | > 1000 nM | – | > 1000 nM |
| COCCOc1cc(F)c2c(Nc3ccc(NC(=O)CCCC(C)C)cc3)ncnc2c1 [Example 31] | ≤ 10 nM | 10 to 100 nM | ≤ 10 nM | 10 to 100 nM | 10 to 100 nM | 100 to 1000 nM | 10 to 100 nM |
| COCCOc1cc(F)c2c(Nc3ccc(NC(=O)C(F)(F)C(=O)NCC(C)(C)C)cc3)ncnc2c1 [Example 60] | 10 to 100 nM | – | – | 10 to 100 nM | 10 to 100 nM | 100 to 1000 nM | 10 to 100 nM |
| CC(C)(C)CNC(=O)CC(=O)Nc1ccc(Nc2ncnc3cc(OCCN4CCOCC4)cc(F)c23)cc1 [Example 145] | 10 to 100 nM | ≤ 10 nM | 10 to 100 nM | 10 to 100 nM | ≤ 10 nM | 10 to 100 nM | 10 to 100 nM |
| COCCOc1cc(F)c2c(Nc3ccc(NC(=O)CC(=O)N4CC[C@@H](C)C4)cc3)ncnc2c1 [Example 198] | 10 to 100 nM | – | – | 10 to 100 nM | 100 to 1000 nM | 100 to 1000 nM | 10 to 100 nM |
| COCCOc1cc(F)c2c(Nc3ccc(NC(=O)CCCC(C)(C)F)cc3)ncnc2c1 [Example 45] | ≤ 10 nM | ≤ 10 nM | 10 to 100 nM | 10 to 100 nM | 10 to 100 nM | 100 to 1000 nM | ≤ 10 nM |
| COCCOc1cc(F)c2c(Nc3ccc(NC(=O)CC(=O)NCC4CC(C)(C)C4)cc3)ncnc2c1 [Example 136] | 10 to 100 nM | – | – | 10 to 100 nM | ≤ 10 nM | 100 to 1000 nM | 10 to 100 nM |
| COCCOc1cc(F)c2c(Nc3ccc(NC(=O)NCCC(C)(C)C#N)cc3F)ncnc2c1 [Example 70] | > 1000 nM | – | – | 100 to 1000 nM | 100 to 1000 nM | 100 to 1000 nM | > 1000 nM |
| COCCOc1cc(F)c2c(Nc3ccc(NC(=O)NCCC(C)C)cc3)ncnc2c1 [Example 18] | ≤ 10 nM | ≤ 10 nM | ≤ 10 nM | ≤ 10 nM | ≤ 10 nM | 10 to 100 nM | 10 to 100 nM |
| CC(C)(F)CCNC(=O)Nc1ccc(Nc2ncnc3cc(OC[C@@H]4CCCO4)cc(F)c23)cc1 [Example 162] | ≤ 10 nM | ≤ 10 nM | 10 to 100 nM | 10 to 100 nM | 10 to 100 nM | 10 to 100 nM | 10 to 100 nM |
| COCCOc1cc(F)c2c(Nc3ccc(NC(=O)CC(=O)N4CC(C)(C)C4)cc3)ncnc2c1 [Example 139] | 10 to 100 nM | ≤ 10 nM | 10 to 100 nM | 10 to 100 nM | ≤ 10 nM | > 1000 nM | 10 to 100 nM |
| CCN(CC)C(=O)CC(=O)Nc1ccc(Nc2ncnc3cc(OCCOC)cc(F)c23)cc1 [Example 184] | 10 to 100 nM | – | – | ≤ 10 nM | 100 to 1000 nM | 100 to 1000 nM | 10 to 100 nM |
| COCCOc1cc(F)c2c(Nc3ccc(NC(=O)CC(=O)N(C(C)C)C(C)C)cc3)ncnc2c1 [Example 163] | 100 to 1000 nM | – | – | 100 to 1000 nM | > 1000 nM | 100 to 1000 nM | 100 to 1000 nM |
| CC(C)(F)CCNC(=O)Nc1ccc(Nc2ncnc3cc(OCCN4CCCC4)cc(F)c23)cc1 [Example 150] | ≤ 10 nM | ≤ 10 nM | 10 to 100 nM | 10 to 100 nM | 10 to 100 nM | 100 to 1000 nM | 10 to 100 nM |
| COCCOc1cc(F)c2c(Nc3ccc(NC(=O)CC(=O)N4CCCCC4(C)C)cc3)ncnc2c1 [Example 142] | 10 to 100 nM | – | – | 10 to 100 nM | 10 to 100 nM | 10 to 100 nM | 10 to 100 nM |
| COCCOc1cc(OC)c2c(Nc3ccc(NC(=O)CC(=O)NC4CCC4)cc3)ncnc2c1 [Example 183] | 10 to 100 nM | – | – | ≤ 10 nM | 10 to 100 nM | 10 to 100 nM | 10 to 100 nM |
